Data published in patent US8383581B2, “Short-chain peptides as parathyroid hormone (PTH) receptor agonist” (Cadila Healthcare Limited, priority 2009, dated 2013).
Where a SMILES comes first, the peptide text is derived from it. [ ]: non-standard residue; d: D form. ξ: configuration not given here. Arg(NO2) = N=C(NCCC[C@H](N)C(=O)O)N[N+](=O)[O-]; αMePhe(2,6-F2) = C[C@](N)(Cc1c(F)cccc1F)C(=O)O; ξαMePhe(2,6-F2) = CC(N)(Cc1c(F)cccc1F)C(=O)O; αMePhe(2-F) = C[C@](N)(Cc1ccccc1F)C(=O)O; ξαMePhe(2-F) = CC(N)(Cc1ccccc1F)C(=O)O; hCit = NC(=O)NCCCC[C@H](N)C(=O)O; Cit = NC(=O)NCCC[C@H](N)C(=O)O; Nle = CCCC[C@H](N)C(=O)O; Orn = NCCC[C@H](N)C(=O)O; Ac5c = NC1(C(=O)O)CCCC1; Aib = CC(C)(N)C(=O)O

Experiments:
Type in all cases: in vitro ADME
[1] = Stability of peptides in human plasma; settings: human, plasma; for metabolised at 24 h, 2 μM: pH 7.8
Summary of the method: (§1)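 Peptides at 2 μM final incubated 0–24 h at 37 °C (50 mM triethanolamine-HCl, pH 7.8) in each matrix, matrix level set to degrade ~50% PTH(1-34) in 1 h; TFA-quenched, C18 HPLC at 206 nm with ESI-MS peak identification; percent degradation from peak areas at each time point.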

[2] = Stability of peptides in simulated gastric fluid (pH 1.5; HCl, NaCl and Pepsin); settings: pH 1.5; for % degradation of peptides in 24 h when incubated with simulated gastric fluid: 2 μM; for half-life / half-life (t1/2) in simulated gastric fluid: simulated gi fluid
[3] = Stability of peptides in simulated intestinal fluid (pH 7.5); settings: pH 7.5; for half-life / half-life (t1/2) in simulated intestinal fluid: simulated gi fluid; for % degradation of peptides in 24 h when incubated with simulated intestinal fluid: 2 μM
Summary of the method: as §1

[4] = Stability of peptides in human liver microsomes; settings: human, microsomes; for % degradation of peptides in 24 h when incubated with liver microsomes: 2 μM, pH 7.8
Summary of the method: as §1

| half-life (t1/2) in human plasma [1] | metabolised at 24 h, 2 μM [1] | % degradation of peptides in 24 h when incubated with simulated gastric fluid [2] | half-life [2] | half-life [3] | % degradation of peptides in 24 h when incubated with simulated intestinal fluid [3] | half-life [4] | % degradation of peptides in 24 h when incubated with liver microsomes [4] | half-life [1] | half-life (t1/2) in simulated gastric fluid [2] | half-life (t1/2) in simulated intestinal fluid [3] | half-life (t1/2) in liver microsomes [4] | Structure (SMILES) |
| --- | --- | --- | --- | --- | --- | --- | --- | --- | --- | --- | --- | --- |
|  | 0% | 45% | 4 h | > 24 h | 00% | 2 h | 85% | > 24 h |  |  |  | CCCC[C@H](NC(=O)C(C)(Cc1c(F)cccc1F)NC(=O)[C@H](CCC(N)=O)NC(=O)[C@@H](NC(=O)[C@H](CCC(=O)O)NC(=O)C(C)(C)NC(=O)[C@@H](NC(=O)C(C)(C)N)C(C)C)[C@@H](C)CC)C(=O)N[C@@H](Cc1c[nH]cn1)C(=O)N[C@@H](CCC(N)=O)C(=O)N[C@@H](CCCCNC(N)=O)C(=O)NC(C)(C)C(=O)NC(C)(C)C(=O)NC(C)(Cc1ccccc1F)C(N)=O (some centres unmarked) [Seq. ID. 430] (H-[Aib]V[Aib]EIQ[ξαMePhe(2,6-F2)][Nle]HQ[hCit][Aib][Aib][ξαMePhe(2-F)]-NH2) |
|  | 0% | 43% | 4 h | > 24 h | 00% | 2 h | 84% | > 24 h |  |  |  | CCCC[C@H](NC(=O)C(C)(Cc1c(F)cccc1F)NC(=O)[C@H](CCC(N)=O)NC(=O)[C@@H](NC(=O)[C@H](CCC(=O)O)NC(=O)C(C)(C)NC(=O)[C@@H](NC(=O)C1(N)CCCC1)C(C)C)[C@@H](C)CC)C(=O)N[C@@H](Cc1c[nH]cn1)C(=O)N[C@@H](CCC(N)=O)C(=O)N[C@@H](CCCCNC(N)=O)C(=O)NC(C)(C)C(=O)NC(C)(C)C(=O)NC(C)(Cc1c(F)cccc1F)C(N)=O (some centres unmarked) [Seq. ID. 440] (H-[Ac5c]V[Aib]EIQ[ξαMePhe(2,6-F2)][Nle]HQ[hCit][Aib][Aib][ξαMePhe(2,6-F2)]-NH2) |
|  | 71% | 14% |  |  | 40% | 1 h | 78% | 8 h | (8) h | (6) h |  | CCCC[C@H](NC(=O)C(C)(Cc1ccccc1F)NC(=O)[C@H](CCC(N)=O)NC(=O)[C@@H](NC(=O)[C@H](CCC(=O)O)NC(=O)C(C)(C)NC(=O)[C@@H](NC(=O)C1(N)CCCC1)C(C)C)[C@@H](C)CC)C(=O)N[C@@H](Cc1c[nH]cn1)C(=O)N[C@@H](CCC(N)=O)C(=O)N[C@@H](CCCCNC(N)=O)C(=O)NC(C)(C)C(=O)N[C@@H](CCCNC(=N)N[N+](=O)[O-])C(=O)NC(C)(Cc1ccccc1F)C(N)=O (some centres unmarked) [Seq. ID. 460] (H-[Ac5c]V[Aib]EIQ[ξαMePhe(2-F)][Nle]HQ[hCit][Aib][Arg(NO2)][ξαMePhe(2-F)]-NH2) |
|  | 0% | 00% | > 24 h | > 24 h | 00% |  | 32% | > 24 h |  |  | (5) h | CCCC[C@H](NC(=O)C(C)(Cc1c(F)cccc1F)NC(=O)[C@H](CCC(N)=O)NC(=O)[C@@H](NC(=O)[C@H](CCC(=O)O)NC(=O)C(C)(C)NC(=O)[C@@H](NC(=O)C1(N)CCCC1)C(C)C)[C@@H](C)CC)C(=O)N[C@@H](Cc1c[nH]cn1)C(=O)N[C@@H](CCC(N)=O)C(=O)NC(C)(Cc1c(F)cccc1F)C(=O)NC(C)(C)C(=O)N[C@@H](CCCNC(N)=O)C(=O)NC(C)(Cc1ccccc1F)C(N)=O (some centres unmarked) [Seq. ID. 480] (H-[Ac5c]V[Aib]EIQ[ξαMePhe(2,6-F2)][Nle]HQ[ξαMePhe(2,6-F2)][Aib][Cit][ξαMePhe(2-F)]-NH2) |

The next lines start with the compound.

| Structure (SMILES) | half-life (t1/2) in human plasma [1] | metabolised at 24 h, 2 μM [1] | % degradation of peptides in 24 h when incubated with simulated gastric fluid [2] | half-life [2] | half-life [3] | % degradation of peptides in 24 h when incubated with simulated intestinal fluid [3] | half-life [4] | % degradation of peptides in 24 h when incubated with liver microsomes [4] | half-life [1] | half-life (t1/2) in simulated gastric fluid [2] | half-life (t1/2) in simulated intestinal fluid [3] | half-life (t1/2) in liver microsomes [4] |
| --- | --- | --- | --- | --- | --- | --- | --- | --- | --- | --- | --- | --- |
| CCCC[C@H](NC(=O)C(C)(Cc1ccccc1F)NC(=O)[C@H](CCC(N)=O)NC(=O)[C@@H](NC(=O)[C@H](CCC(=O)O)NC(=O)C(C)(C)NC(=O)[C@@H](NC(=O)C1(N)CCCC1)C(C)C)[C@@H](C)CC)C(=O)N[C@@H](Cc1c[nH]cn1)C(=O)N[C@@H](CCC(N)=O)C(=O)N[C@@H](CCCN)C(=O)N[C@@H](C)C(=O)NC(C)(Cc1c(F)cccc1F)C(=O)NC(C)(Cc1ccccc1F)C(N)=O (some centres unmarked) [Seq. ID. 315] (H-[Ac5c]V[Aib]EIQ[ξαMePhe(2-F)][Nle]HQ[Orn]A[ξαMePhe(2,6-F2)][ξαMePhe(2-F)]-NH2) | (9) h | 71% | 100% | 0.5 h | 0.5 h | 100% | 0.5 h | 100% |  |  |  |  |
| CCCC[C@H](NC(=O)[C@](C)(Cc1ccccc1F)NC(=O)[C@H](CCC(N)=O)NC(=O)[C@@H](NC(=O)[C@H](CCC(=O)O)NC(=O)C(C)(C)NC(=O)[C@@H](NC(=O)C(C)(C)N)C(C)C)[C@@H](C)CC)C(=O)N[C@@H](Cc1c[nH]cn1)C(=O)N[C@@H](CCC(N)=O)C(=O)N[C@@H](CCCN)C(=O)N[C@@H](C)C(=O)N[C@@H](CCCNC(=N)N[N+](=O)[O-])C(=O)N[C@@](C)(Cc1ccccc1F)C(N)=O [Seq. ID. 329] (H-[Aib]V[Aib]EIQ[αMePhe(2-F)][Nle]HQ[Orn]A[Arg(NO2)][αMePhe(2-F)]-NH2) | (9) h | 70% | 100% | 0.5 h | 0.5 h | 100% | 0.5 h | 100% |  |  |  |  |
| CCCC[C@H](NC(=O)C(C)(Cc1ccccc1F)NC(=O)[C@H](CCC(N)=O)NC(=O)[C@@H](NC(=O)[C@H](CCC(=O)O)NC(=O)C(C)(C)NC(=O)[C@@H](NC(=O)C(C)(C)N)C(C)C)[C@@H](C)CC)C(=O)N[C@@H](Cc1c[nH]cn1)C(=O)N[C@@H](CCC(N)=O)C(=O)N[C@@H](CCCNC(N)=O)C(=O)N[C@@H](C)C(=O)N[C@@H](CCCNC(N)=O)C(=O)NC(C)(Cc1ccccc1F)C(N)=O (some centres unmarked) [Seq. ID. 345] (H-[Aib]V[Aib]EIQ[ξαMePhe(2-F)][Nle]HQ[Cit]A[Cit][ξαMePhe(2-F)]-NH2) | (9) h | 70% | 100% | 0.5 h | 0.5 h | 100% | 0.5 h | 100% |  |  |  |  |
| CCCC[C@H](NC(=O)C(C)(Cc1ccccc1F)NC(=O)[C@H](CCC(N)=O)NC(=O)[C@@H](NC(=O)[C@H](CCC(=O)O)NC(=O)C(C)(C)NC(=O)[C@@H](NC(=O)C1(N)CCCC1)C(C)C)[C@@H](C)CC)C(=O)N[C@@H](Cc1c[nH]cn1)C(=O)N[C@@H](CCC(N)=O)C(=O)N[C@@H](CCCNC(N)=O)C(=O)NC(C)(C)C(=O)NC(C)(Cc1c(F)cccc1F)C(=O)NC(C)(Cc1ccccc1F)C(N)=O (some centres unmarked) [Seq. ID. 380] (H-[Ac5c]V[Aib]EIQ[ξαMePhe(2-F)][Nle]HQ[Cit][Aib][ξαMePhe(2,6-F2)][ξαMePhe(2-F)]-NH2) |  | 0% | 50% | 4 h | > 24 h | 00% | 2 h | 86% | > 24 h |  |  |  |
| CCCC[C@H](NC(=O)[C@](C)(Cc1c(F)cccc1F)NC(=O)[C@H](CCC(N)=O)NC(=O)[C@@H](NC(=O)[C@H](CCC(=O)O)NC(=O)C(C)(C)NC(=O)[C@@H](NC(=O)C(C)(C)N)C(C)C)[C@@H](C)CC)C(=O)N[C@@H](Cc1c[nH]cn1)C(=O)N[C@@H](CCC(N)=O)C(=O)N[C@@H](CCCNC(N)=O)C(=O)NC(C)(C)C(=O)N[C@@](C)(Cc1c(F)cccc1F)C(=O)N[C@@](C)(Cc1c(F)cccc1F)C(N)=O [Seq. ID. 390] (H-[Aib]V[Aib]EIQ[αMePhe(2,6-F2)][Nle]HQ[Cit][Aib][αMePhe(2,6-F2)][αMePhe(2,6-F2)]-NH2) |  | 0% | 55% | 4 h | > 24 h | 00% | 2 h | 84% | > 24 h |  |  |  |
| CCCC[C@H](NC(=O)C(C)(Cc1ccccc1F)NC(=O)[C@H](CCC(N)=O)NC(=O)[C@@H](NC(=O)[C@H](CCC(=O)O)NC(=O)C(C)(C)NC(=O)[C@@H](NC(=O)C1(N)CCCC1)C(C)C)[C@@H](C)CC)C(=O)N[C@@H](Cc1c[nH]cn1)C(=O)N[C@@H](CCC(N)=O)C(=O)N[C@@H](CCCCNC(N)=O)C(=O)N[C@@H](C)C(=O)N[C@@H](CCCNC(N)=O)C(=O)NC(C)(Cc1ccccc1F)C(N)=O (some centres unmarked) [Seq. ID. 411] (H-[Ac5c]V[Aib]EIQ[ξαMePhe(2-F)][Nle]HQ[hCit]A[Cit][ξαMePhe(2-F)]-NH2) |  | 77% | 14% |  |  | 45% | 1 h | 81% | 8 h | (8) h | (6) h |  |
